Experimental data as given in article PMC6923382, “Small molecules that inhibit TNF signalling by stabilising an asymmetric form of the trimer” (Nature Communications, 2019).
Values joined by “and” are separate entries in the source; they are usually repeats but may differ in a detail not shown here. Equal entries are not always repeated. “Also recorded” adds a separate entry of the source.

Legend:
[1] = test system: TNFR1 signalling complex (RIP-1, pNF-κB); assay: TNFR1 immunoprecipitation and signalling assay (Jurkat cells); assay type: cell-based, human; conditions: 10 µM compound pre-incubated 1 h with TNF 25 ng/mL, Western blot
Procedure: Cells were then lysed for 1 h in cold lysis buffer (1% NP-40, 150 mM NaCl, 50 mM Tris pH 8.0, 25 mM NaF, 1 mM vanadate, 1% phosphatase inhibitor and 0.2% protease inhibitor cocktail), and cell supernatant harvested. TNFR1 immunoprecipitation was performed by incubating supernatant with 5 µg anti-TNFR1 antibody (R&D systems, #AB-225-PB) overnight while rotating at 4 °C, followed by the addition of 20 µL protein G sepharose beads for 1 h rotating at 4 °C. An isotype control sample was incubated with 5 µg goat IgG, instead of anti-TNFR1 antibody to assess how much unspecific binding to the beads occurs during immunoprecipitation. Beads were subsequently washed 3× in lysis buffer, and then the supernatant removed and SDS-PAGE reducing sample buffer added to beads and samples boiled for 10 min. Sample (15 µL) was then loaded on a 4–12% Bis-Tris gel and run for 65 min at 200 V in MOPS buffer. […] RIP-1 ubiquitination (1:250 dilution, BD, #610459) was then detected by Western blotting using anti-mouse-HRP (1:2000 dilution, Cell Signalling Technology, #7076). pNFκB (1:1000 dilution, Cell Signalling Technology, #3033) and GAPDH (1:4000 dilution, Cell Signalling Technology, #5174) were measured in the total cell lysates by Western blotting using anti-rabbit HRP (1:2000 dilution, Cell Signalling Technology, #7074). […]

[2] = Dynamic light scattering (colloidal aggregation); assay type: physicochemical; conditions: 10 μM; no detergent; 25°C; n=5
Procedure: Dynamic light scattering (DLS) experiments have been performed with compounds […]
baseline control and positive control (miconazole at 100 μM) were included. The radius data […]
compound in the absence of detergent.
DLS data (Malvern Nano ZS). Each sample (150 μl) was measured 5 times in a low volume disposable sizing cuvette at 25°C using 173º non-invasive backscatter (NIBS). […]

human TNF superfamily = assay: Thermal denaturation, human TNF superfamily; assay type: binding; conditions: 100 µM compound, 0.1 mg/mL sample; single experiment
Procedure: A fluorescence probed thermal denaturation assay was performed to assess the effect of the compounds on the thermal stability of TNF (or other members of the TNF family) as a measure of compound binding. The reaction mixture contained 5 µL of 30× SYPRO® Orange dye (Invitrogen) and 5 µL of TNF (at 1 mg/mL), 37.5 μL PBS, pH 7.4 and 2.5 μL of compound (at 2 mM in DMSO). The mixture (10 µL) was dispensed in quadruplicate into a 384 PCR optical well plate and was run on a 7900HT Fast Real-Time PCR System ([…]). The PCR System heating device was set at 20 °C to 99 °C with a ramp rate of 1.1 °C min^−1; fluorescence changes in the wells were monitored by a CCD device. The fluorescence intensity increase was plotted as a function of temperature and the Tm calculated as the midpoint of this denaturation curve (determined as the point of inflection).
Compound based thermal stability increase (oC)
100 µM compound 0.1 mg/mL sample […]
compared to human TNF. Human proteins were provided through a collaboration with Beryllium. Data from a single experiment. […]
compared to mouse TNF. Mouse proteins were purchased from R&D Systems. (Note: No Tm for Lymphotoxin (LTa) was detected in this assay making a change in Tm unmeasurable).
Data from a single experiment.
(also on this page, place not known: 16.0Thermal 10Thermal stability difference (oC) stability increase (oC))

TNF = TNF (Homo sapiens, UniProt P01375); assay: Biacore binding with and without non-ionic detergent; parameters: stabilise an asymmetrical form of the soluble TNF trimer; conditions: 0.01% v/v Triton X-100 and 0.025% v/v Tween-80; Biacore T200
Chain of TNF (P01375 77-233 limits assumed): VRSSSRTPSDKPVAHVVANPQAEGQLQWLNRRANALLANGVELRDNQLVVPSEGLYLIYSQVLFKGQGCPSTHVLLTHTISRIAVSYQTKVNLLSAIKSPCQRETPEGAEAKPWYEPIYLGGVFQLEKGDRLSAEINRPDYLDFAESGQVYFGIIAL
Procedure: Experiments to show any effect of addition of non-ionic detergent were performed on a Biacore, with human TNF on the solid phase and compounds in solution phase in the presence and absence of 0.01% v/v Triton X-100 and 0.025% v/v Tween-80.
Three Biacore T200s were treated with sodium hypochlorite to remove any traces of detergent. Each machine was equilibrated in either HBS with no detergent (control), HBS:
Tween-P80 (0.025% v/v) or HBS: Triton X-100 (0.01% v/v). Human TNF was tethered to ~ 2000 RU before equilibration in the equivalent control or detergent buffers plus 1% DMSO. […]
were fitted to a BIAevaluation T200 1:1 algorithm and the fitted data shown. […]

[3] = test system: zymosan-induced neutrophil recruitment; assay: Zymosan induced neutrophil recruitment in vivo; parameters: species or system mouse; conditions: for percent over bar (inhibition of zymosan-induced neutrophil recruitment): Zymosan 1 µg per mouse i.p.; for CD45+ GR-1+ cells/mL in the peritoneal cavity: zymosan, individual mice
Procedure: Zymosan (R&D Systems) was administered by intraperitoneal injection at a concentration of 1 µg per mouse in PBS (100 µL). […] Four hours after the zymosan challenge, mice were sacrificed and the peritoneal cavity lavaged with 3 mL of FACS buffer. An aliquot (0.3 mL) of lavage fluid was used to assess the number of CD45^+GR1^+ cells by flow cytometry. Briefly, the cells were treated with ACK lysis buffer, washed and suspended in FACS buffer prior to staining with FITC anti-mouse CD45 and PE anti-mouse GR1 (BD Biosciences). Data are shown as mean ± standard error of the number of CD45^+GR-1^+ cells. Statistical significance (*p < 0.05, **p < 0.01, ***p < 0.001 and ****p < 0.0001) was determined using one-way ANOVA with Dunnett’s multiple comparison test.

## Cc1ccc(C)c(Cn2c(C(O)c3ccncc3)nc3ccc(-c4cnn(C)c4)cc32)c1 (stereo not drawn) [UCB-9260]
[1]
  RIP recruitment to TNFR signalling complex and phosphorylation of NF-κB: markedly reduced
[2]
  colloidal aggregation (DLS radius): no evidence of colloidal aggregation
Human TNF superfamily
  change in Tm of other human TNF superfamily members: negligible effect; also recorded: No other protein tested showed a significant change in Tm
TNF
  effect of non-ionic detergents on binding to human TNF: does not alter the binding
[3]; 10 mg/kg p.o., 4 hours, mean ± s.e.
  percent over bar (inhibition of zymosan-induced neutrophil recruitment): 11±14%
[3]; 10mg/kg
  CD45+ GR-1+ cells/mL in the peritoneal cavity: 195599.4 cells/mL and 255505.0 cells/mL and 196418.3 cells/mL and 192743.4 cells/mL and 219374.0 cells/mL and 134444.4 cells/mL and 127176.3 cells/mL and 228610.3 cells/mL
[3]; 30 mg/kg p.o.
  percent over bar (inhibition of zymosan-induced neutrophil recruitment): 10±16%
[3]; 30mg/kg
  CD45+ GR-1+ cells/mL in the peritoneal cavity: 308000.0 cells/mL and 169293.1 cells/mL and 102620.5 cells/mL and 226129.3 cells/mL and 167710.1 cells/mL and 175546.4 cells/mL and 66491.2 cells/mL and 345608.1 cells/mL
[3]; 100 mg/kg p.o.
  percent over bar (inhibition of zymosan-induced neutrophil recruitment): 51±10%
[3]; 100mg/kg
  CD45+ GR-1+ cells/mL in the peritoneal cavity: 80477.6 cells/mL and 108548.6 cells/mL and 137240.9 cells/mL and 57696.4 cells/mL and 231185.2 cells/mL and 83347.1 cells/mL and 39698.9 cells/mL and 112119.6 cells/mL
[3]; 300 mg/kg p.o.
  percent over bar (inhibition of zymosan-induced neutrophil recruitment): 64±4%
[3]; 300mg/kg
  CD45+ GR-1+ cells/mL in the peritoneal cavity: 106121.8 cells/mL and 78357.0 cells/mL and 70745.1 cells/mL and 93070.9 cells/mL and 117333.3 cells/mL and 57439.3 cells/mL and 69649.3 cells/mL and 44069.8 cells/mL
